Assay results from patent publication US10092551B2, “Spiro-thiazolones” (Hoffmann-La Roche Inc., priority 2014, dated 2018).

Target: human V1a receptor (Homo sapiens (Human), UniProt P37288)
Assay: human V1a receptor binding studies (3H-Vasopressin, SPA beads)
Details: membranes of HEK293 cells transiently transfected with human V1a receptor, Ki by Cheng-Prussoff
Procedure: The human V1a receptor was cloned by RT-PCR from total human liver RNA. The coding sequence was subcloned in an expression vector after sequencing to confirm the identity of the amplified sequence. […] Cell membranes were prepared from HEK293 cells transiently transfected with the expression vector and grown in 20 liter fermenters with the following protocol.
50 g of cells are re-suspended in 30 ml freshly prepared ice cold Lysis buffer (50 mM HEPES, 1 mM EDTA, 10 mM MgCl2 adjusted to pH=7.4+complete cocktail of protease inhibitor (Roche Diagnostics)). Homogenized with Polytron for 1 min and sonicated on ice for 2×2 minutes at 80% intensity (Vibracell sonicator). The preparation is centrifuged 20 min at 500 g at 4° C., the pellet is discarded and the supernatant centrifuged 1 hour at 43,000 g at 4° C. (19,000 rpm). The pellet is re-suspended in 12.5 ml Lysis buffer+12.5 ml Sucrose 20% and homogenized using a Polytron for 1-2 min. The protein concentration is determined by the Bradford method and aliquots are stored at −80° C. until use. For binding studies 60 mg Yttrium silicate SPA beads (Amersham) are mixed with an aliquot of membrane in binding buffer (50 mM Tris, 120 mM NaCl, 5 mM KCl, 2 mM CaCl2, 10 mM MgCl2) for 15 minutes with mixing. 50 μl of bead/membrane mixture is then added to each well of a 96 well plate, followed by 50 μl of 4 nM 3H-Vasopressin (American Radiolabeled Chemicals). For total binding measurement 100 μl of binding buffer are added to the respective wells, for non-specific binding 100 μl of 8.4 mM cold vasopressin and for compound testing 100 μl of a serial dilution of each compound in 2% DMSO. The plate is incubated 1 h at room temperature, centrifuged 1 min at 1000 g and counted on a Packard Top-Count. Non-specific binding counts are subtracted from each well and data is normalized to the maximum specific binding set at 100%. To calculate an IC 50 the curve is fitted using a non-linear regression model (XLfit) and the Ki is calculated using the Cheng-Prussoff equation.

Sequence of human V1a receptor (P37288 whole entry): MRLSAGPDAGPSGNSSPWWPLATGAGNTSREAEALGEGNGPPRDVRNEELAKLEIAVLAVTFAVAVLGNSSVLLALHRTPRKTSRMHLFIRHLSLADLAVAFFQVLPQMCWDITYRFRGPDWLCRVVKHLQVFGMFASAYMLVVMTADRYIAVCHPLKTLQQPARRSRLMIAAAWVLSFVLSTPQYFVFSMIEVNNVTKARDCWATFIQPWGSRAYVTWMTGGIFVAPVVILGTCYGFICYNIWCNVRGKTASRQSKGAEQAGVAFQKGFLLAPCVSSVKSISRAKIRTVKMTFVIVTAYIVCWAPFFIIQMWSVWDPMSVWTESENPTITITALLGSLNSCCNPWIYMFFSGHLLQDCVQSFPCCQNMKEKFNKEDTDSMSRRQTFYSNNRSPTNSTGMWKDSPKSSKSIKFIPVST

SMILES	pKi hV1a
CC(=O)OCC(COC(C)=O)=C1SC(N2CCC3(CC2)OCc2ccccc23)=NC1=O [Example 72, 2-[4-oxo-2-(1′H,3H-spiro[2-benzofuran-1,4′-piperidin]-1′-yl)-1,3-thiazol-5(4H)-ylidene]propane-1,3-diyl diacetate]	8.3
C/C(=C1/SC(N2CCC3(CC2)OCc2ccccc23)=NC1=O)c1ccc(Cl)cc1 [Example 26, (5Z)-5-[1-(4-chlorophenyl)ethylidene]-2-(1′H,3H-spiro[2-benzofuran-1,4′-piperidin]-1′-yl)-1,3-thiazol-4(5H)-one]	9.2
O=C1N=C(N2CCC3(CC2)OCc2ccccc23)SC1=C(CF)CF [Example 69, 5-(1,3-difluoropropan-2-ylidene)-2-(1′H,3H-spiro[2-benzofuran-1,4′-piperidin]-1′-yl)-1,3-thiazol-4(5H)-one]	8.0
O=C1N=C(N2CCC3(CC2)OCc2ccccc23)S/C1=C1/CCCc2c(Cl)cccc21 [Example 19, (5E/Z)-5-(5-chloro-3,4-dihydronaphthalen-1(2H)-ylidene)-2-(1′H,3H-spiro[2-benzofuran-1,4′-piperidin]-1′-yl)-1,3-thiazol-4(5H)-one]	7.7
C/C(=C1/SC(N2[C@@H]3CC[C@H]2C[C@@]2(C3)OC(=O)c3ccccc32)=NC1=O)c1ccc(Cl)cc1 [Example 5, 8-{(5E/Z)-5-[1-(4-chlorophenyl)ethylidene]-4-oxo-4,5-dihydro-1,3-thiazol-2-yl}-3′H-spiro[8-azabicyclo[3.2.1]octane-3,1′-[2]benzofuran]-3′-one]	8.9
C/C(=C1/SC(N2CCC3(CC2)OCc2ccccc23)=NC1=O)c1cnn(C)c1 [Example 62, (5Z)-5-[1-(1-methyl-1H-pyrazol-4-yl)ethylidene]-2-(1′H,3H-spiro[2-benzofuran-1,4′-piperidin]-1′-yl)-1,3-thiazol-4(5H)-one]	8.3
CC/C(=C1\SC(N2CCC3(CC2)OCc2ccccc23)=NC1=O)c1ccc(Cl)cc1 [Example 25, (5E)-5-[1-(4-chlorophenyl)propylidene]-2-(1′H,3H-spiro[2-benzofuran-1,4′-piperidin]-1′-yl)-1,3-thiazol-4(5H)-one]	8.2
C/C(=C1/SC(N2CCC3(CC2)OCc2ccccc23)=NC1=O)c1ccncc1 [Example 33, (5Z)-5-[1-(pyridin-4-yl)ethylidene]-2-(1′H,3H-spiro[2-benzofuran-1,4′-piperidin]-1′-yl)-1,3-thiazol-4(5H)-one]	8.3
C/C(=C1/SC(N2CCC3(CC2)OCc2ccccc23)=NC1=O)c1ccc(C)nc1 [Example 7, (5E/Z)-5-[1-(6-methylpyridin-3-yl)ethylidene]-2-(1′H,3H-spiro[2-benzofuran-1,4′-piperidin]-1′-yl)-1,3-thiazol-4(5H)-one]	8.9
O=C1N=C(N2CCC3(CC2)OCc2ccccc23)S/C1=C1/C(=O)Nc2ccccc21 [Example 74, (3E/Z)-3-[4-oxo-2-(1′H,3H-spiro[2-benzofuran-1,4′-piperidin]-1′-yl)-1,3-thiazol-5(4H)-ylidene]-1,3-dihydro-2H-indol-2-one]	7.5
O=C1N=C(N2CCC3(CC2)OCc2ccccc23)S/C1=C(\c1ccc(Cl)cc1)C(F)(F)F [Example 18, (5E)-5-[1-(4-chlorophenyl)-2,2,2-trifluoroethylidene]-2-(1′H,3H-spiro[2-benzofuran-1,4′-piperidin]-1′-yl)-1,3-thiazol-4(5H)-one]	9.1
O=C1N=C(N2CCC3(CC2)OCc2ccccc23)S/C1=C(\c1ccc(Cl)cc1)C1CC1 [Example 22, (5E/Z)-5-[(4-chlorophenyl)(cyclopropyl)methylidene]-2-(1′H,3H-spiro[2-benzofuran-1,4′-piperidin]-1′-yl)-1,3-thiazol-4(5H)-one]	7.8

Further lines, results first:

pKi hV1a	SMILES
8.4	O=C1N=C(N2CCC3(CC2)OCc2ccccc23)SC1=C1c2ccccc2C=Cc2ccccc21 [Example 99, 5-(5H-dibenzo[a,d][7]annulen-5-ylidene)-2-(1′H,3H-spiro[2-benzofuran-1,4′-piperidin]-1′-yl)-1,3-thiazol-4(5H)-one]
8.4	C/C(=C1/SC(N2CCC3(CC2)OCc2ccccc23)=NC1=O)c1cc(C)on1 [Example 79]
7.8	CC(C)/C(=C1\SC(N2CCC3(CC2)OCc2ccccc23)=NC1=O)c1ccc(Cl)cc1 [Example 154, (5E)-5-[1-(4-chlorophenyl)-2-methylpropylidene]-2-(1′H,3H-spiro[2-benzofuran-1,4′-piperidin]-1′-yl)-1,3-thiazol-4(5H)-one]
7.7	C/C(=C1\SC(N2CCC3(CC2)OCc2ccccc23)=NC1=O)c1cccnc1Cl [Example 84, (5E)-5-[1-(2-chloropyridin-3-yl)ethylidene]-2-(1′H,3H-spiro[2-benzofuran-1,4′-piperidin]-1′-yl)-1,3-thiazol-4(5H)-one]
7.1	O=C1N=C(N2CCC3(CC2)OCc2ccccc23)S/C1=C\c1ccncc1 [Example 95, 5-(pyridin-4-ylmethylidene)-2-(1′H,3H-spiro[2-benzofuran-1,4′-piperidin]-1′-yl)-1,3-thiazol-4(5H)-one]
9.0	C/C(=C1\SC(N2CCC3(CC2)OCc2ccccc23)=NC1=O)c1ccccc1 [Example 152, (5E)-5-(1-phenylethylidene)-2-(1′H,3H-spiro[2-benzofuran-1,4′-piperidin]-1′-yl)-1,3-thiazol-4(5H)-one]
8.4	C/C(=C1/SC(N2CCC3(CC2)OCc2ccccc23)=NC1=O)c1ccncc1F [Example 158, (5Z)-5-[1-(3-fluoropyridin-4-yl)ethylidene]-2-(1′H,3H-spiro[2-benzofuran-1,4′-piperidin]-1′-yl)-1,3-thiazol-4(5H)-one]
7.1	O=C1N=C(N2CCC3(CC2)OCc2ccccc23)S/C1=C\c1cccnc1 [Example 94, 5-(pyridin-3-ylmethylidene)-2-(1′H,3H-spiro[2-benzofuran-1,4′-piperidin]-1′-yl)-1,3-thiazol-4(5H)-one]
9.4	C/C(=C1/SC(N2CCC3(CC2)OCc2ccccc23)=NC1=O)c1ccc(Cl)nc1 [Example 96, (5Z)-5-[1-(6-chloropyridin-3-yl)ethylidene]-2-(1′H,3H-spiro[2-benzofuran-1,4′-piperidin]-1′-yl)-1,3-thiazol-4(5H)-one]
6.8	C/C(=C1/SC(N2CCC3(CC2)OCc2ccccc23)=NC1=O)c1ncc[nH]1 [Example 107, (5Z)-5-[1-(1H-imidazol-2-yl)ethylidene]-2-(1′H,3H-spiro[2-benzofuran-1,4′-piperidin]-1′-yl)-1,3-thiazol-4(5H)-one]
7.1	O=C1N=C(N2CCC3(CC2)OCc2ccccc23)SC1=C(c1ccc(Cl)cc1)c1ccc(Cl)cc1 [Example 100, 5-[bis(4-chlorophenyl)methylidene]-2-(1′H,3H-spiro[2-benzofuran-1,4′-piperidin]-1′-yl)-1,3-thiazol-4(5H)-one]
8.0	O=C1N=C(N2CCC3(CC2)OC(=O)c2ccccc23)S/C1=C(\CO)c1ccc(Cl)nc1 [Example 147, 1′-{(5Z)-5-[1-(6-chloropyridin-3-yl)-2-hydroxyethylidene]-4-oxo-4,5-dihydro-1,3-thiazol-2-yl}-3H-spiro[2-benzofuran-1,4′-piperidin]-3-one]
7.0	COCC(COC)=C1SC(N2CCC3(CC2)OCc2ncccc23)=NC1=O [Example 163, 5-(1,3-dimethoxypropan-2-ylidene)-2-(1′H,7H-spiro[furo[3,4-b]pyridine-5,4′-piperidin]-1′-yl)-1,3-thiazol-4(5H)-one]
8.9	O=C1N=C(N2CCC3(CC2)OCc2ccccc23)SC1=C(C1CC1)C1CC1 [Example 115, 5-(dicyclopropylmethylidene)-2-(1′H,3H-spiro[2-benzofuran-1,4′-piperidin]-1′-yl)-1,3-thiazol-4(5H)-one]
7.6	O=C1N=C(N2CCC3(CC2)OCc2ccccc23)SC1=C(C1CCCC1)C1CCCC1 [Example 118, 5-(dicyclopentylmethylidene)-2-(1′H,3H-spiro[2-benzofuran-1,4′-piperidin]-1′-yl)-1,3-thiazol-4(5H)-one]
8.9	O=C1N=C(N2CCC3(CC2)OCc2ccccc23)S/C1=C1/COCc2ccccc21 [Example 87, (5E/Z)-5-(1H-isochromen-4(3H)-ylidene)-2-(1′H,3H-spiro[2-benzofuran-1,4′-piperidin]-1′-yl)-1,3-thiazol-4(5H)-one]
8.6	O=C1N=C(N2CCC3(CC2)OCc2ccccc23)SC1=C1c2ccccc2Sc2ccccc21 [Example 102, 2-(1′H,3H-spiro[2-benzofuran-1,4′-piperidin]-1′-yl)-5-(9H-thioxanthen-9-ylidene)-1,3-thiazol-4(5H)-one]
